# Target: T1, Activin receptor type-1 (Homo sapiens, UniProt Q04771)
# T1 sequence (Q04771 whole entry): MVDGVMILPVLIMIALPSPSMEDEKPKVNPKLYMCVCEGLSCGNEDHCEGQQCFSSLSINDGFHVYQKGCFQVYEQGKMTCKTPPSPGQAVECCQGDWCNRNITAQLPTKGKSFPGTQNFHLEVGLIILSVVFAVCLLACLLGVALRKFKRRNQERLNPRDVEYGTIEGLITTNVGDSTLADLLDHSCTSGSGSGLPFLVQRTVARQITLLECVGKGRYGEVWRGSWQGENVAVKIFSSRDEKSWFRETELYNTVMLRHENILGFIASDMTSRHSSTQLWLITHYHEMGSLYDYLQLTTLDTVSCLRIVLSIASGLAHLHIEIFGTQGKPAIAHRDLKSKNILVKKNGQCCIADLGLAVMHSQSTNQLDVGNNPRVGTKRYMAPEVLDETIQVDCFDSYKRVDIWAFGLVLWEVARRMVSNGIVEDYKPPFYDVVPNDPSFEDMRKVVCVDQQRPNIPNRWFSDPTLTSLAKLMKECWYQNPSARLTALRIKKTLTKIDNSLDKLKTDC
# Assay: Biochemical assay: Biochemical assays to measure the inhibitory effects of the compounds were performed by ThermoFisher Scientific (Life Technologies). ALK2 inhibition was tested using LanthaScreen Eu Kinase Binding Assay screening protocol.
smiles,measurement,value
COc1cc(-n2cnc(Nc3nc(-c4cccc(CO)c4)nc4sc(CO)cc34)c2)cc(OC)c1OC,IC50,< 100 nM

# Source: ChEMBL document CHEMBL5729731, “Imidazole-containing inhibitors of ALK2 kinase” (2023)
